{"source": "patent US20250032624A1", "about": "“SMALL MOLECULE DEGRADATION METHODS FOR TREATING ALS/FTD” (University of Florida Research Foundation, Incorporated, priority 2021, published 2025)", "key": {"[1]": {"tested_on": "RAN translation, poly(GP)", "assay": "poly(GP) abundance in c9ALS/FTD iPSNs", "assay_type": "cell-based, human", "conditions": "500 nM, treated 17 days (day 15-32)", "description": "Differentiated motor neurons (iPSNs) were derived from the iPSCs listed in the previous section. The differentiation process was based on a previously reported method with slight modifications^33,34. Briefly, iPSCs were plated into Matrigel-coated 100 mm dishes (30-40% confluence). Neuroepithelial induction was performed by replacing the Basal medium with Stage 1 medium [47.5% IMDM (Iscove's Modified Dulbecco's Medium), 47.5% F12 medium, 1% NEAA (Non-Essential Amino Acids) (Life Technologies), 2% B27 (Invitrogen), 1% N2 (Invitrogen), 1% PSA (Penicillin-Streptomycin-Amphotericin), 0.2 μM LDN193189 (Stemgent), 10 μM SB431542 (STEMCELL Technologies) and 3 μM CHIR99021 (Sigma-Aldrich)]. The medium was changed daily for 6 days, after which cells were detached from plates using Accutase (STEMCELL Technologies). Cells were seeded into 6-well plates (1.5×10^6 cells/well) in 3 mL of Stage 2 medium [Stage 1 medium supplemented with 0.1 μM All-trans RA (Sigma-Aldrich) and 1 μM SAG (Cayman Chemicals)]. […]\nMeso Scale Discovery (MSD) Technology utilizes electrochemiluminescence to detect biomarkers, such as poly(GP), in protein samples. […] Protein samples were quantified using a Pierce™ Micro BCA Protein Assay Kit (Thermo Scientific).\nPoly(GP) levels were measured by an electrochemical luminescent sandwich immunoassay. […]"}, "[2]": {"tested_on": "r(G4C2)^exp-containing foci", "assay": "RNA FISH of r(G4C2)exp-containing nuclear foci in cortex of +/+PWR500 mice", "assay_type": "in vivo, mouse", "conditions": "+/+PWR500 mice vs vehicle", "description": "A total of 20 age- and gender-matched mice (12 +/+PWR500 [5 Male and 7 Female] and 8 WT [4 Male and 4 Female]), ranging from 18-21 weeks old were used in therapeutic efficacy studies (Table 4). Mice were treated with a single bolus injection of 33 nmol of compound 2 formulated in 1% (v/v) DMSO/99% water, administered by an intracerebroventricular injection (ICV). Three weeks post injection, mice were euthanized, and tissue was harvested for study.\nPostmortem brain tissue was excised and sliced along the sagittal plane at the midline. The right hemisphere was flash frozen with Optimal Cutting Temperature (OCT) compound in 2-methylbutane in liquid nitrogen. Frozen tissue was sectioned ([…]) using a cryostat and slides were stained as previously described.^39 Briefly, frozen sections were fixed in 4% paraformaldehyde in 1×DPBS for 20 minutes then incubated in ice cold 70% ethanol at 4° C. for 30 minutes. Once fixed, slides were incubated for 10 minutes in 40% formamide in 2×SSC Buffer at room temperature. Slides were blocked in 1× Hybridization Buffer (40% formamide, 2×SSC Buffer, […] BSA, 100 mg/mL dextran sulfate, 250 μg/mL tRNA, and 2 mM vanadyl sulfate) for 30 minutes at 55° C. Slides were then incubated for 3 hours at 55° C. with 200 ng/mL of FISH probe (Table 1) in 1× Hybridization Buffer. […]"}}}
{"smiles": "CCOC(=O)C1=C(Nc2ccccc2)S/C(=C\\c2ccc(OCCOCCOCCOCCNC(=O)CCCOc3ccc4c(c3)c3cc5c(C(=O)N[C@H](C)CN(C)C)nccc5c(C)c3n4C)c(O)c2)C1=O", "note": "[ALS Compound Formula I]", "values": [{"measurement": "reduction of poly(GP) abundance", "setting": "[1]", "result": "~60", "unit": "%"}, {"measurement": "number of r(G4C2)^exp-containing foci in the nuclei of cortex neurons", "setting": "[2]", "result": "significantly reduced"}]}
